IC50 data for 39 compounds are collected here from patent US9783536B2, “Nitrogen-containing heterocyclic compound or salt thereof” (FUJIFILM Corporation, priority 2013, dated 2017).

Structures can show the parent of a compound that is named as a salt.

One test deals with T1, human PI3Kα protein (Homo sapiens, UniProt P42336).
T1 construct: purchased Carna Biosciences, Inc; host or cells: baculovirus expression system
The test can be described thus: PI3Kα enzyme assay (ADP-Glo). Format: biochemical. The settings on record: read-out: PI3Kα enzyme inhibitory activity. In outline:
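Biotinylated human PI3Kα (baculovirus-expressed, 4.5 nmol/L) pre-incubated 15 min with compound in Tris-HCl pH 7.5, MgCl2, BSA; reaction 60 min at 25° C with 50 μmol/L PIP2 and 100 μmol/L ATP final. ADP quantified by ADP-Glo luminescence; IC50 calculated.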

Test [1] concerns the target T2, GST fusion human ERK2 protein (Homo sapiens, UniProt P28482).
T2 construct: purchased Carna Biosciences, Inc; host or cells: E. coli expression system
The test can be described thus: ERK2 enzyme assay (1). The settings on record: ERK2 enzyme assay (1); read-out: ERK2 enzyme inhibitory activity (1). It is filed as biochemical. The gist of the method: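 IC50 derived from the proportion of phosphorylated 5-FAM peptide, separated from unphosphorylated peptide by microfluidic mobility shift. Compound was first preincubated 15 min at room temperature with 2.5 nmol/L kinase at pH 7.5, then 43.1 μmol/L ATP plus 4.25 μmol/L substrate reacted 120 min at 25 °C.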

T1 sequence (P42336 whole entry): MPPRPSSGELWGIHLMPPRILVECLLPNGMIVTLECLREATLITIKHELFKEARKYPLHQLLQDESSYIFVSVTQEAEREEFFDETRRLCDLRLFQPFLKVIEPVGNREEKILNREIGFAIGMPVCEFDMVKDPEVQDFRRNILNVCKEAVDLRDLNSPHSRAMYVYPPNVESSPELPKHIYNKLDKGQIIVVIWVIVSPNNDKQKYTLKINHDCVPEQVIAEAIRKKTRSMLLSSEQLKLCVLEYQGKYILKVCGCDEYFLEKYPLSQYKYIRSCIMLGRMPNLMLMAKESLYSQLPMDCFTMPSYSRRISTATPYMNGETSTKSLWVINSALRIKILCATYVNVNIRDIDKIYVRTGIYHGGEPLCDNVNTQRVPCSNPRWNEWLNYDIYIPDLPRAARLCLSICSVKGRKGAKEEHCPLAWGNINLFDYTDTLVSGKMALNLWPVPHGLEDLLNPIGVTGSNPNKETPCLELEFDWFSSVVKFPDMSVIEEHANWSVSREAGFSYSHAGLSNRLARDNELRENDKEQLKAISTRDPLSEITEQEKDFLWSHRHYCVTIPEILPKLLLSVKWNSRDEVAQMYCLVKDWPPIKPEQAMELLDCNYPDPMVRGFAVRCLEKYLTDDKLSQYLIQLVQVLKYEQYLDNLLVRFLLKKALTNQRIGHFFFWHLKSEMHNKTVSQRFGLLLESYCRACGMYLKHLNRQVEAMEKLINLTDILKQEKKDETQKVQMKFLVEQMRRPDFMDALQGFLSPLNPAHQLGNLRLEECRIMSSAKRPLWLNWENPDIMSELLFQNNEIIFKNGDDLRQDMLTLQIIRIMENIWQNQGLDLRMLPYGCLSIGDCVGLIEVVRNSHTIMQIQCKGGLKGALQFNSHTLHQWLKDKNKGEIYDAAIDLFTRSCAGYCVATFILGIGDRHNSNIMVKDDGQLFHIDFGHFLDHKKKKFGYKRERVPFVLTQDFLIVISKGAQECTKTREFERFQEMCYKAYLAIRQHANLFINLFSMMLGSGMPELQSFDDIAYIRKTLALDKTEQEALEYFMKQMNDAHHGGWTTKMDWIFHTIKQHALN
T1 sequence (P27986 whole entry partner): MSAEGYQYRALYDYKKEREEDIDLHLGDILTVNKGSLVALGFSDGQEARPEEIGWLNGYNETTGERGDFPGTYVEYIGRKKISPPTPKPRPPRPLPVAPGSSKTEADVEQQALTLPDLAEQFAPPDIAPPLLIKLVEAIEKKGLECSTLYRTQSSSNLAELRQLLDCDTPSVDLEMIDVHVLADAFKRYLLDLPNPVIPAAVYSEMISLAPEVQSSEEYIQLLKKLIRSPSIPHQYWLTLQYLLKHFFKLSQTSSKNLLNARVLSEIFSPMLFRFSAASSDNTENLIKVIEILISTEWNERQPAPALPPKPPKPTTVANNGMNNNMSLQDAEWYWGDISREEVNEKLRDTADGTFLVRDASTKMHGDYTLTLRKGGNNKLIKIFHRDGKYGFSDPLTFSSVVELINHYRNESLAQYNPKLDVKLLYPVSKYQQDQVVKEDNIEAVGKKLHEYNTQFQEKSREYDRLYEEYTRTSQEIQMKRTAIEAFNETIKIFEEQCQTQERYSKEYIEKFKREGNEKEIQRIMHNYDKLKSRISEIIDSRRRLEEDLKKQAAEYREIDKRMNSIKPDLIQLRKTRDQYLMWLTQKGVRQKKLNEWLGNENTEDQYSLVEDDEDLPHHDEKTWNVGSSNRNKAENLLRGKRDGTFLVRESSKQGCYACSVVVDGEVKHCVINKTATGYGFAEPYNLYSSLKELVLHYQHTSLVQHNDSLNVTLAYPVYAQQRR
T2 sequence (P28482 whole entry, the tested form may be a part): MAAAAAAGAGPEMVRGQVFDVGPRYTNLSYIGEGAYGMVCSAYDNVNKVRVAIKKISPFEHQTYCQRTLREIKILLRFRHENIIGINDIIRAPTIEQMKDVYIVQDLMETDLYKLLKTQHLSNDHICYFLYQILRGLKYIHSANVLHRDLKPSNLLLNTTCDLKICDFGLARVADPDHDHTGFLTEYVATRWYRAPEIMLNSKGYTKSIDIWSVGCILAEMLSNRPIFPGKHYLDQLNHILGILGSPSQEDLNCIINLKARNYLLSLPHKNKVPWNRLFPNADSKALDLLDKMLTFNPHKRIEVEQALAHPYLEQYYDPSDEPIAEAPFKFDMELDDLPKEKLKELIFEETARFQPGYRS

Consider `CC(C)c1nnc(Nc2ccc3nccc(-c4cncnc4)c3n2)s1` [Example 0278, 5-isopropyl-N-(8-(pyrimidin-5-yl)-1,5-naphthyridin-2-yl)-1,3,4-thiadiazole-2-amine], for which the IC50 (at human PI3Kα protein; in test [1]) was less than 1000 nM in each case.

For `COc1cnccc1-c1ccnc2ccc(Nc3nnc(C(C)C)s3)nc12` [Example 0279], the IC50 (at human PI3Kα protein; in test [1]) was less than 1000 nM throughout.

On to `COc1cc(-c2ccnc3ccc(Nc4nnc(C(C)C)s4)nc23)ccn1` [Example 0280], for which the IC50 on human PI3Kα protein was 10000 to 50000 nM; in test [1], 1000 to 10000 nM.

With `CC(C)c1nnc(Nc2ccc3nccc(-c4ccccn4)c3n2)s1` [Example 0281, 5-isopropyl-N-(8-(pyridin-2-yl)-1,5-naphthyridin-2-yl)-1,3,4-thiadiazole-2-amine], the IC50 (on human PI3Kα protein; in test [1]) was 1000 to 10000 nM throughout.

On to `CC(C)c1nnc(Nc2ccc3nccc(-c4cnccn4)c3n2)s1` [Example 0282], for which the IC50 (at human PI3Kα protein; in test [1]) was 1000 to 10000 nM each time.

On to `CC(C)c1nnc(Nc2ccc3nccc(-c4ccnnc4)c3n2)s1` [Example 0283], for which the IC50 (on human PI3Kα protein; in test [1]) was less than 1000 nM in each case.

Turning to `CC(C)c1nnc(Nc2ccc3nccc(-c4cn[nH]c4)c3n2)s1` [Example 0284], the IC50 at human PI3Kα protein was less than 1000 nM; in test [1], 1000 to 10000 nM.

`CC(C)c1nnc(Nc2ccc3nccc(-c4ccn[nH]4)c3n2)s1` [Example 0285]: the IC50 (at human PI3Kα protein; in test [1]) was less than 1000 nM throughout.

For `CC(C)c1nnc(Nc2ccc3nccc(N4CCOCC4)c3n2)s1` [Example 0286, 5-isopropyl-N-(8-morpholino-1,5-naphthyridin-2-yl)-1,3,4-thiadiazole-2-amine], the IC50 (at human PI3Kα protein; in test [1]) was 1000 to 10000 nM each time.

On to `CC(C)c1nnc(Nc2ccc3nccc(-c4cccc(C(N)=O)c4)c3n2)s1` [Example 0287], for which the IC50 (on human PI3Kα protein; in test [1]) was less than 1000 nM in each case.

In the case of `CC(C)c1nnc(Nc2ccc3nccc(-c4ccc(C(N)=O)cc4)c3n2)s1` [Example 0288], the IC50 (at human PI3Kα protein; in test [1]) was less than 1000 nM throughout.

Turning to `CC(C)c1nnc(Nc2ccc3nccc(-c4cc[nH]c(=O)c4)c3n2)s1` [Example 0289, 4-(6-((5-isopropyl-1,3,4-thiadiazol-2-yl)amino)-1,5-naphthyridin-4-yl)pyridin-2(1H)-one], the IC50 is less than 1000 nM at human PI3Kα protein and 1000 to 10000 nM in test [1].

For `CCC(C)(C)c1cnnc(Nc2ccc3ncc(-c4cnn(CCCN5CCCC5)c4)cc3n2)c1` [Example 0296], the IC50 (at human PI3Kα protein; in test [1]) was less than 1000 nM throughout.

Consider `c1ccc(-c2cnnc(Nc3ccc4ncc(-c5cnn(CCCN6CCCC6)c5)cc4n3)c2)cc1` [Example 0297, N-(5-phenylpyridazin-3-yl)-7-(1-(3-(pyrrolidin-1-yl)propyl)-1H-pyrazol-4-yl)-1,5-naphthyridine-2-amine], for which the IC50 (on human PI3Kα protein; in test [1]) was less than 1000 nM in each case.

For the compound `CCCCCc1nnc(Nc2ccc3ncc(-c4cnn(C)c4)cc3n2)[nH]1` [Example 0299, 7-(1-methyl-1H-pyrazol-4-yl)-N-(5-pentyl-4H-1,2,4-triazol-3-yl)-1,5-naphthyridine-2-amine], the IC50 at human PI3Kα protein is 10000 to 50000 nM; in test [1], less than 1000 nM.

Regarding `Cn1cc(-c2cnc3ccc(Nc4nnc[nH]4)nc3c2)cn1` [Example 0300, 7-(1-Methyl-1H-pyrazol-4-yl)-N-(4H-1,2,4-triazol-3-yl)-1,5-naphthyridine-2-amine], the IC50 at human PI3Kα protein is 1000 to 10000 nM; in test [1], less than 1000 nM.

Turning to `CN(C)CCn1cc(-c2cnc3ccc(Nc4nnc(C5CCCC5)s4)nc3c2)cn1` [Example 0304, 5-Cyclopentyl-N-(7-(1-(2-(dimethylamino)ethyl)-1H-pyrazol-4-yl)-1,5-naphthyridin-2-yl)-1,3,4-thiadiazole-2-amine], the IC50 (at human PI3Kα protein; in test [1]) was less than 1000 nM throughout.

For `c1nnc(Nc2ccc3ncc(-c4cnn(CCCN5CCNCC5)c4)cc3n2)s1` [Example 0305, N-(7-(1-(3-(piperazin-1-yl)propyl)-1H-pyrazol-4-yl)-1,5-naphthyridin-2-yl)-1,3,4-thiadiazole-2-amine hydrochloride], the IC50 (at human PI3Kα protein; in test [1]) was less than 1000 nM in each case.

With `Cn1cc(-c2cc3nc(Nc4nncs4)ccc3nc2N)cn1` [Example 0306, 7-(1-methyl-1H-pyrazol-4-yl)-N^2-(1,3,4-thiadiazol-2-yl)-1,5-naphthyridine-2,6-diamine], the IC50 (on human PI3Kα protein; in test [1]) was less than 1000 nM each time.

Regarding `COCCCNc1cnc2ccc(Nc3nnc(C4CCCC4)s3)nc2c1` [Example 0307], the IC50 (on human PI3Kα protein; in test [1]) was less than 1000 nM each time.

`COCCNc1cnc2ccc(Nc3nnc(C4CCCC4)s3)nc2c1` [Example 0308]: the IC50 at human PI3Kα protein was 1000 to 10000 nM; in test [1] it was less than 1000 nM.

As for `COCCN(C)c1cnc2ccc(Nc3nnc(C4CCCC4)s3)nc2c1` [Example 0309], the IC50 is 1000 to 10000 nM at human PI3Kα protein and less than 1000 nM in test [1].

In the case of `OCCNc1cnc2ccc(Nc3nnc(C4CCCC4)s3)nc2c1` [Example 0310], the IC50 was 1000 to 10000 nM at human PI3Kα protein and less than 1000 nM in test [1].

Consider `c1nc2ccc(Nc3nnc(C4CCCC4)s3)nc2cc1NC1CCOCC1` [Example 0312], for which the IC50 (at human PI3Kα protein; in test [1]) was less than 1000 nM throughout.

As to `O[C@@H]1CCN(c2cnc3ccc(Nc4nnc(C5CCCC5)s4)nc3c2)C1` [Example 0313], the IC50 on human PI3Kα protein was 1000 to 10000 nM; in test [1] it was less than 1000 nM.

As to `O[C@H]1CCN(c2cnc3ccc(Nc4nnc(C5CCCC5)s4)nc3c2)C1` [Example 0314], the IC50 on human PI3Kα protein is 1000 to 10000 nM; in test [1], less than 1000 nM.

For `c1cc(Nc2cnc3ccc(Nc4nnc(C5CCCC5)s4)nc3c2)no1` [Example 0315, N^2-(5-cyclopentyl-1,3,4-thiadiazol-2-yl)-N^7-(isoxazol-3-yl)-1,5-naphthyridine-2,7-diamine], the IC50 is 1000 to 10000 nM at human PI3Kα protein and less than 1000 nM in test [1].

Take `CN(C)CC(C)(C)Cn1cc(-c2cnc3ccc(Nc4nnc(C5CCCC5)s4)nc3c2)cn1` [Example 0317, 5-Cyclopentyl-N-(7-(1-(3-(dimethylamino)-2,2-dimethylpropyl)-1H-pyrazol-4-yl)-1,5-naphthyridin-2-yl)-1,3,4-thiadiazole-2-amine]: the IC50 (at human PI3Kα protein; in test [1]) was less than 1000 nM throughout.

Regarding `c1nc2ccc(Nc3nnc(C4CCCC4)s3)nc2cc1NC1CCOC1` (stereo not drawn) [Example 0319, N^2-(5-cyclopentyl-1,3,4-thiadiazol-2-yl)-N^7-(tetrahydrofuran-3-yl)-1,5-naphthyridine-2,7-diamine], the IC50 (at human PI3Kα protein; in test [1]) was less than 1000 nM in each case.

On to `Cc1nnc(Nc2ccc3ncc(-c4cnn(CCCN5CCCC5)c4)cc3n2)s1` [Example 0323], for which the IC50 (at human PI3Kα protein; in test [1]) was less than 1000 nM in each case.

For the compound `c1nc2ccc(Nc3nnc(C4CCCO4)s3)nc2cc1-c1cnn(C2CCNCC2)c1` (stereo not drawn) [Example 0324, N-(7-(1-(piperidin-4-yl)-1H-pyrazol-4-yl)-1,5-naphthyridin-2-yl)-5-(tetrahydrofuran-2-yl)-1,3,4-thiadiazole-2-amine], the IC50 (on human PI3Kα protein; in test [1]) was less than 1000 nM in each case.

As for `CN(c1cnc2ccc(Nc3nnc(C4CCCC4)s3)nc2c1)C1CCOC1` (stereo not drawn) [Example 0326, N^2-(5-cyclopentyl-1,3,4-thiadiazol-2-yl)-N^7-methyl-N^7-(tetrahydrofuran-3-yl)-1,5-naphthyridine-2,7-diamine], the IC50 (on human PI3Kα protein; in test [1]) was less than 1000 nM throughout.

For the compound `C1=C(c2cnc3ccc(Nc4nnc(C5CCCC5)s4)nc3c2)CCNC1` [Example 0330, 5-cyclopentyl-N-(7-(1,2,3,6-tetrahydropyridin-4-yl)-1,5-naphthyridin-2-yl)-1,3,4-thiadiazole-2-amine hydrochloride], the IC50 on human PI3Kα protein is 1000 to 10000 nM; in test [1] it was less than 1000 nM.

As to `c1nc2ccc(Nc3nnc(C4CCCC4)s3)nc2cc1C1CCNCC1` [Example 0332, 5-Cyclopentyl-N-(7-(piperidin-4-yl)-1,5-naphthyridin-2-yl)-1,3,4-thiadiazole-2-amine hydrochloride], the IC50 on human PI3Kα protein was 10000 to 50000 nM; in test [1], less than 1000 nM.

Regarding `CN1CC=C(c2cnc3ccc(Nc4nnc(C5CCCC5)s4)nc3c2)CC1` [Example 0333, 5-cyclopentyl-N-(7-(1-methyl-1,2,3,6-tetrahydropyridin-4-yl)-1,5-naphthyridin-2-yl)-1,3,4-thiadiazole-2-amine], the IC50 at human PI3Kα protein was 1000 to 10000 nM; in test [1], less than 1000 nM.

In the case of `CC(=O)N1CC=C(c2cnc3ccc(Nc4nnc(C5CCCC5)s4)nc3c2)CC1` [Example 0334, 1-(4-(6-((5-cyclopentyl-1,3,4-thiadiazol-2-yl)amino)-1,5-naphthyridin-3-yl)-5,6-dihydropyridine-1(2H)-yl)ethanone], the IC50 (on human PI3Kα protein; in test [1]) was less than 1000 nM in each case.

`CC(=O)N1CCC(c2cnc3ccc(Nc4nnc(C5CCCC5)s4)nc3c2)CC1` [Example 0335, 1-(4-(6-((5-Cyclopentyl-1,3,4-thiadiazol-2-yl)amino)-1,5-naphthyridin-3-yl)piperidin-1-yl)ethanone]: the values for the IC50 (on human PI3Kα protein; in test [1]) were 10000 to 50000 nM and less than 1000 nM, respectively.

Consider `Cc1cnccc1-c1cnc2ccc(Nc3cc(C(C)C)cnn3)nc2c1` [Example 0361], for which the IC50 on human PI3Kα protein was 1000 to 10000 nM; in test [1] it was less than 1000 nM.

Turning to `CC(C)(C)c1nnc(Nc2ccc3ncc(-c4cnn(CCCN5CCCC5)c4)cc3n2)s1` [Example 0366], the IC50 (on human PI3Kα protein; in test [1]) was less than 1000 nM in each case.
